Data reported in ChEMBL document CHEMBL1201862, “PubChem BioAssay data set” (2004).
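Interpolation was linear, between the two tested concentrations surrounding the appropriate level; five concentrations were tested over 48 hours in 96-well plates. Here, GI50 denotes the concentration required for 50% inhibition of growth.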 The source made the active and inactive calls. Cut-off read from the data, not from the text of the source: active = GI50 up to about 1.1 µM and inactive = higher.

Legend:
Assay in all cases: inhibition of tumour cell growth, NCI panel, 48 h
A498 = tested on: A498
A549 = tested on: A549
CAKI-1 = tested on: CAKI-1
HCT-116 = tested on: HCT-116
HCT-15 = tested on: HCT-15
HOP-92 = tested on: HOP-92
MCF7 = tested on: MCF7
NCI-H460 = tested on: NCI-H460
NCI-H522 = tested on: NCI-H522
NCI/ADR-RES = tested on: NCI/ADR-RES
OVCAR-3 = tested on: OVCAR-3
OVCAR-4 = tested on: OVCAR-4
RXF 393 = tested on: RXF 393
SK-MEL-28 = tested on: SK-MEL-28
SN12C = tested on: SN12C
SNB-75 = tested on: SNB-75
SW-620 = tested on: SW-620
UACC-257 = tested on: UACC-257
UO-31 = tested on: UO-31

SMILES	GI50 (A498)	GI50 (A549)	GI50 (CAKI-1)	GI50 (HCT-116)	GI50 (HCT-15)	GI50 (HOP-92)	GI50 (MCF7)	GI50 (NCI-H460)	GI50 (NCI-H522)	GI50 (NCI/ADR-RES)	GI50 (OVCAR-3)	GI50 (OVCAR-4)	GI50 (RXF 393)	GI50 (SK-MEL-28)	GI50 (SN12C)	GI50 (SNB-75)	GI50 (SW-620)	GI50 (UACC-257)	GI50 (UO-31)
O=C(Oc1cc(=O)c(OC(=O)c2ccccc2)co1)c1ccccc1	> 100 µM (inactive)	84.7 µM (inactive)	> 100 µM (inactive)	65 µM (inactive)	42.6 µM	> 100 µM (inactive)	> 100 µM (inactive)	> 100 µM (inactive)	26.9 µM (inactive)	83.2 µM (inactive)	> 100 µM (inactive)	95.7 µM (inactive)	72.9 µM (inactive)	55.6 µM (inactive)	45.8 µM (inactive)	45.6 µM (inactive)	> 100 µM (inactive)	> 100 µM (inactive)	> 100 µM (inactive)
Cc1ccc2c(c1C)C(=O)C1(C2)Cc2ccc3c(c2C1=O)CCC3 (stereo not drawn)	> 100 µM (inactive)	> 100 µM (inactive)	> 100 µM (inactive)	> 100 µM (inactive)	> 100 µM	> 100 µM (inactive)	> 100 µM (inactive)	> 100 µM (inactive)	> 100 µM (inactive)	> 100 µM (inactive)	> 100 µM (inactive)	> 100 µM (inactive)	41.8 µM (inactive)	> 100 µM (inactive)	> 100 µM (inactive)	> 100 µM (inactive)	> 100 µM (inactive)	> 100 µM (inactive)	> 100 µM (inactive)
CN(C(=O)C12C3C4(C(=O)O)C1(C(=O)N(C)C(C)(C)C)C1C2(C(=O)O)C3(C(=O)N(C)C(C)(C)C)C14C(=O)N(C)C(C)(C)C)C(C)(C)C (stereo not drawn)	> 100 µM (inactive)	> 100 µM (inactive)	> 100 µM (inactive)	> 100 µM (inactive)	> 100 µM	> 100 µM (inactive)	> 100 µM (inactive)	> 100 µM (inactive)	> 100 µM (inactive)	> 100 µM (inactive)	> 100 µM (inactive)	> 100 µM (inactive)	> 100 µM (inactive)	> 100 µM (inactive)	> 100 µM (inactive)		> 100 µM (inactive)	> 100 µM (inactive)	> 100 µM (inactive)
COc1ccc(Nc2c(C#N)c3n(c4ccccc24)c2ccccc2[n+]3C)cc1OC	4.31 µM (inactive)	3.03 µM (inactive)	1.93 µM (inactive)	1.61 µM (inactive)	1.88 µM	9.44 µM (inactive)	1.99 µM (inactive)	1.93 µM (inactive)	3.16 µM (inactive)	2.71 µM (inactive)	3.52 µM (inactive)	4.68 µM (inactive)	2.82 µM (inactive)	4.43 µM (inactive)	1.27 µM (inactive)	3.43 µM (inactive)	2.44 µM (inactive)	3.78 µM (inactive)	1.3 µM (inactive)
O=N/N=c1\o[n-][n+](CCc2ccccc2)c1Cc1/c(=N/N=O)o[n-][n+]1CCc1ccccc1	46.8 µM (inactive)	> 100 µM (inactive)	> 100 µM (inactive)	50.1 µM (inactive)	> 100 µM	27.1 µM (inactive)	70 µM (inactive)	33.7 µM (inactive)	23.1 µM (inactive)	> 100 µM (inactive)	18.7 µM (inactive)	16.8 µM (inactive)	39.2 µM (inactive)	55.6 µM (inactive)	34.5 µM (inactive)	19 µM (inactive)	89.7 µM (inactive)	> 100 µM (inactive)	> 100 µM (inactive)
CCOC(=O)N1N(c2ccccc2)C(=O)C1(c1ccccc1)c1ccccc1	> 100 µM (inactive)	> 100 µM (inactive)	> 100 µM (inactive)	17.1 µM (inactive)	> 100 µM	70.3 µM (inactive)	25.9 µM (inactive)		44.8 µM (inactive)	> 100 µM (inactive)	40.5 µM (inactive)	> 100 µM (inactive)	28.8 µM (inactive)	> 100 µM (inactive)	> 100 µM (inactive)		> 100 µM (inactive)	> 100 µM (inactive)	51.6 µM (inactive)
Cc1ccc(S(=O)(=O)N2CC3OC(C)(C)OC3C2CO)cc1 (stereo not drawn)	> 100 µM (inactive)	> 100 µM (inactive)	> 100 µM (inactive)	> 100 µM (inactive)	> 100 µM	> 100 µM (inactive)	> 100 µM (inactive)	> 100 µM (inactive)	> 100 µM (inactive)	> 100 µM (inactive)	> 100 µM (inactive)	> 100 µM (inactive)	> 100 µM (inactive)	> 100 µM (inactive)	> 100 µM (inactive)	> 100 µM (inactive)	> 100 µM (inactive)	> 100 µM (inactive)	
CN1C(=O)N(c2ccccc2)C2(CCN(CC3COc4ccccc4O3)CC2)C1=O (stereo not drawn)	> 100 µM (inactive)	> 100 µM (inactive)	32.4 µM (inactive)	96.8 µM (inactive)	> 100 µM	66.5 µM (inactive)	> 100 µM (inactive)	96.2 µM (inactive)	> 100 µM (inactive)	> 100 µM (inactive)	19.8 µM (inactive)	> 100 µM (inactive)	> 100 µM (inactive)	> 100 µM (inactive)	> 100 µM (inactive)		4.5 µM (inactive)	82.2 µM (inactive)	> 100 µM (inactive)
Nc1ccc(S(=O)(=O)Nc2nnc(S(N)(=O)=O)s2)cc1	> 100 µM (inactive)	> 100 µM (inactive)	> 100 µM (inactive)	> 100 µM (inactive)	> 100 µM	34.5 µM (inactive)	> 100 µM (inactive)	> 100 µM (inactive)	> 100 µM (inactive)	> 100 µM (inactive)		> 100 µM (inactive)	> 100 µM (inactive)			> 100 µM (inactive)	> 100 µM (inactive)		> 100 µM (inactive)
C=C(C)[C@@H]1CCC2=C[C@@H](OC2=O)[C@@H](C(=C)C)C2=CC(C(=O)O)=C(C1)O2	> 100 µM (inactive)	> 100 µM (inactive)	> 100 µM (inactive)	60.4 µM (inactive)	> 100 µM	> 100 µM (inactive)	68.1 µM (inactive)		> 100 µM (inactive)	> 100 µM (inactive)	34.1 µM (inactive)	> 100 µM (inactive)	> 100 µM (inactive)		> 100 µM (inactive)	> 100 µM (inactive)	> 100 µM (inactive)	> 100 µM (inactive)	26 µM (inactive)
COC(=O)[C@](C)(Cc1ccccc1)NC(=O)[C@@H](C)N1[C@@H](c2ccccc2)COC1(C)C	99.8 µM (inactive)	63.8 µM (inactive)	82.2 µM (inactive)	38.5 µM (inactive)	37.7 µM	36 µM (inactive)	52 µM (inactive)	31 µM (inactive)	13.1 µM (inactive)	24.9 µM (inactive)	37.6 µM (inactive)	39.6 µM (inactive)	75.3 µM (inactive)	> 100 µM (inactive)		14.4 µM (inactive)	51.8 µM (inactive)	53.7 µM (inactive)	30.6 µM (inactive)
Cc1ccc(C(=O)/C=C2\Nc3cccnc3NC2=O)cc1	> 100 µM (inactive)	> 100 µM (inactive)	> 100 µM (inactive)	> 100 µM (inactive)	> 100 µM	> 100 µM (inactive)	> 100 µM (inactive)	> 100 µM (inactive)	16.6 µM (inactive)	> 100 µM (inactive)	> 100 µM (inactive)	> 100 µM (inactive)	21.7 µM (inactive)	> 100 µM (inactive)	> 100 µM (inactive)			> 100 µM (inactive)	> 100 µM (inactive)
CCCCc1ccc(-n2c(C)c(COC(=O)NC)c(COC(=O)NC)c2C)cc1	1.1 µM (active)	6.08 µM (inactive)	2.86 µM (inactive)	4.08 µM (inactive)	6.18 µM	2.74 µM (inactive)	4.76 µM (inactive)	3.81 µM (inactive)	2.64 µM (inactive)	5.55 µM (inactive)	12.1 µM (inactive)		2.84 µM (inactive)	19.1 µM (inactive)	3.54 µM (inactive)	7.73 µM (inactive)	6.46 µM (inactive)	10.6 µM (inactive)	2.7 µM (inactive)
COC1CC(OC2CCC3(C)C(CCC45CCC(C6=CC(=O)OC6)C(C)(CCC43)C5=O)C2)OC(C)C1O (stereo not drawn)	71.4 µM (inactive)	28.5 µM (inactive)	32.6 µM (inactive)	35.1 µM (inactive)	24.3 µM	81.5 µM (inactive)	50.7 µM (inactive)	18 µM (inactive)	27.9 µM (inactive)	32.5 µM (inactive)	27.7 µM (inactive)		24 µM (inactive)	> 100 µM (inactive)	23.5 µM (inactive)	30.3 µM (inactive)	43.7 µM (inactive)	> 100 µM (inactive)	16.5 µM (inactive)
COc1cc(O)c2c(O)c3c(=O)oc(C)cc3c(OC)c2c1 [PAEPALANTINE]	61.7 µM (inactive)	25.8 µM (inactive)	31 µM (inactive)	20.6 µM (inactive)	28.3 µM	16.1 µM (inactive)	32.6 µM (inactive)	32.4 µM (inactive)	35.4 µM (inactive)	19.6 µM (inactive)	27.2 µM (inactive)	14.7 µM (inactive)	49.8 µM (inactive)	25 µM (inactive)	24.1 µM (inactive)		34.2 µM (inactive)	31 µM (inactive)	31.8 µM (inactive)
